Source: patent publication US11419806B2, “Prebiotic oral care methods using a saccharide” (Colgate-Palmolive Company, priority 2013, dated 2022)

Columns and labels:
Experiment in all cases: Twenty-four hour biofilm growth (crystal violet)
Assay type in all cases: cell-based
A. viscosus = tested on: A. viscosus
Method: (§1) The increase in biofilm formation of the tested bacteria in response to selected saccharides (D-turanose, D-lactitol, myo-inositol, and N-acetyl-D-mannosamine) was investigated by setting up biofilm growth assays in a nutritionally rich medium (brain heart infusion broth (BHI), Oxoid), over 24 hours. Late exponential growth phase liquid cultures were prepared by transferring the respective bacterium from blood agar plates to BHI and overnight incubation at 37° C. in an anaerobic atmosphere for A. viscosus, V. parvula, P. gingivalis, P. intermedia, T. forsythia, A. naeslundii, and C. sputigena, and in a 5% CO2 environment for S. salivarius, S. sanguinis, S. mitis, A. actinomycetemcomitans, S. mutans, and S. gordonii. Overnight cultures were transferred to BHI and adjusted to a concentration of 1×10^7 CFU/ml by measuring the optical density at 600 nm (OD600) (BioRad SmartSpec 3000). For each strain, 200 μl of the bacterial suspension was added to a 96-well plate containing 20 μl of the respective saccharides. Final concentrations of the saccharides were set to 5, 10, 20 and 25 μmol/ml. […] Additionally, for each bacterium tested, a background control, to correct for background staining, was added. This background control contained the bacterium tested and 0.03 weight % chlorhexidine, as an antiseptic. Plates were incubated as previously described. After 24 hrs the supernatant was removed from the wells of the plates. The wells were washed twice with 1×100 μL PBS (phosphate buffered saline), fixed for 20 minutes with 96% vol. ethanol (96% vol. solution in water) and the biofilm retained at the bottom of the wells was stained with 1 weight % crystal violet (1 weight % solution in water). The bound dye was dissolved with 5% vol. acetic acid (5% vol. solution in water). Quantification of the stained biofilm was performed by measuring the absorbance at 630 nm using a Multiskan Ascent microplate reader (Thermo Scientific).
(§2) The experiment was carried out on three different days (thus providing 3 biological replicas) and each day the experiment was carried out in quadruple (thus providing 4 technical replicas) for each combination of bacterium with saccharide and for each control. For each day and for each combination, the average (mean) of the values obtained (as detailed above) for the four technical replicas was calculated to provide a single value for each combination on each day. The values shown in Tables 7a, 7b, 8a, 8b, below, are the average (mean) of the three single values obtained for each combination of bacterium with saccharide.

C. sputigena = tested on: C. sputigena
Method: as §1, §2

P. intermedia = tested on: P. intermedia
Method: as §1, §2

S. gordonii = tested on: S. gordonii
Method: as §1, §2

P. gingivalis = tested on: P. gingivalis
Method: as §1, §2

S. salivarius = tested on: S. salivarius
Method: as §1, §2

S. mitis = tested on: S. mitis
Method: as §1, §2

V. parvula = tested on: V. parvula
Method: as §1, §2

A. naeslundii = tested on: A. naeslundii
Method: as §1, §2

S. sanguinis = tested on: S. sanguinis
Method: as §1, §2

A. actinomycetemcomitans = tested on: A. actinomycetemcomitans
Method: as §1, §2

T. forsythia = tested on: T. forsythia
Method: as §1, §2

S. mutans = conditions: S mutans
Method: as §1, §2

## OC[C@H]1O[C@@](O)(CO)[C@@H](O[C@H]2O[C@H](CO)[C@@H](O)[C@H](O)[C@H]2O)[C@@H]1O [D-Turanose, α-D-glucopyranosyl-(1→3)-α-D-fructofuranose]
A. viscosus; 5 μmol/ml
  biofilm growth: OD 630 nm at 24 hrs divided by OD of control (control = 1): 0.1692
A. viscosus; 10 μmol/ml
  biofilm growth: OD 630 nm at 24 hrs divided by OD of control (control = 1): 0.0920
A. viscosus; 20 μmol/ml
  biofilm growth: OD 630 nm at 24 hrs divided by OD of control (control = 1): 0.0289
A. viscosus; 25 μmol/ml
  biofilm growth: OD 630 nm at 24 hrs divided by OD of control (control = 1): 0.0366
C. sputigena; 5 μmol/ml
  biofilm growth: OD 630 nm at 24 hrs divided by OD of control (control = 1): 0.9429
C. sputigena; 10 μmol/ml
  biofilm growth: OD 630 nm at 24 hrs divided by OD of control (control = 1): 0.9387
C. sputigena; 20 μmol/ml
  biofilm growth: OD 630 nm at 24 hrs divided by OD of control (control = 1): 0.9130
C. sputigena; 25 μmol/ml
  biofilm growth: OD 630 nm at 24 hrs divided by OD of control (control = 1): 0.9464
P. intermedia; 5 μmol/ml
  biofilm growth: OD 630 nm at 24 hrs divided by OD of control (control = 1): 2.0059
P. intermedia; 10 μmol/ml
  biofilm growth: OD 630 nm at 24 hrs divided by OD of control (control = 1): 1.8143
P. intermedia; 20 μmol/ml
  biofilm growth: OD 630 nm at 24 hrs divided by OD of control (control = 1): 1.5017
P. intermedia; 25 μmol/ml
  biofilm growth: OD 630 nm at 24 hrs divided by OD of control (control = 1): 1.1725
S. gordonii; 5 μmol/ml
  biofilm growth: OD 630 nm at 24 hrs divided by OD of control (control = 1): 1.0874
S. gordonii; 10 μmol/ml
  biofilm growth: OD 630 nm at 24 hrs divided by OD of control (control = 1): 1.1335
S. gordonii; 20 μmol/ml
  biofilm growth: OD 630 nm at 24 hrs divided by OD of control (control = 1): 1.1002
S. gordonii; 25 μmol/ml
  biofilm growth: OD 630 nm at 24 hrs divided by OD of control (control = 1): 1.2536
P. gingivalis; 5 μmol/ml
  biofilm growth: OD 630 nm at 24 hrs divided by OD of control (control = 1): 0.9121
P. gingivalis; 10 μmol/ml
  biofilm growth: OD 630 nm at 24 hrs divided by OD of control (control = 1): 0.8700
P. gingivalis; 20 μmol/ml
  biofilm growth: OD 630 nm at 24 hrs divided by OD of control (control = 1): 0.9602
P. gingivalis; 25 μmol/ml
  biofilm growth: OD 630 nm at 24 hrs divided by OD of control (control = 1): 0.9613
S. salivarius; 5 μmol/ml
  biofilm growth: OD 630 nm at 24 hrs divided by OD of control (control = 1): 0.9812
S. salivarius; 10 μmol/ml
  biofilm growth: OD 630 nm at 24 hrs divided by OD of control (control = 1): 0.9793
S. salivarius; 20 μmol/ml
  biofilm growth: OD 630 nm at 24 hrs divided by OD of control (control = 1): 0.8441
S. salivarius; 25 μmol/ml
  biofilm growth: OD 630 nm at 24 hrs divided by OD of control (control = 1): 0.8731
S. mitis; 5 μmol/ml
  biofilm growth: OD 630 nm at 24 hrs divided by OD of control (control = 1): 1.9433
S. mitis; 10 μmol/ml
  biofilm growth: OD 630 nm at 24 hrs divided by OD of control (control = 1): 1.5717
S. mitis; 20 μmol/ml
  biofilm growth: OD 630 nm at 24 hrs divided by OD of control (control = 1): 0.5236
S. mitis; 25 μmol/ml
  biofilm growth: OD 630 nm at 24 hrs divided by OD of control (control = 1): 0.3988
V. parvula; 5 μmol/ml
  biofilm growth: OD 630 nm at 24 hrs divided by OD of control (control = 1): 1.2298
V. parvula; 10 μmol/ml
  biofilm growth: OD 630 nm at 24 hrs divided by OD of control (control = 1): 1.3941
V. parvula; 20 μmol/ml
  biofilm growth: OD 630 nm at 24 hrs divided by OD of control (control = 1): 1.4942
V. parvula; 25 μmol/ml
  biofilm growth: OD 630 nm at 24 hrs divided by OD of control (control = 1): 1.3055
A. naeslundii; 5 μmol/ml
  biofilm growth: OD 630 nm at 24 hrs divided by OD of control (control = 1): 1.5849
A. naeslundii; 10 μmol/ml
  biofilm growth: OD 630 nm at 24 hrs divided by OD of control (control = 1): 1.4372
A. naeslundii; 20 μmol/ml
  biofilm growth: OD 630 nm at 24 hrs divided by OD of control (control = 1): 1.4348
A. naeslundii; 25 μmol/ml
  biofilm growth: OD 630 nm at 24 hrs divided by OD of control (control = 1): 1.4411
S. sanguinis; 5 μmol/ml
  biofilm growth: OD 630 nm at 24 hrs divided by OD of control (control = 1): 2.0761
S. sanguinis; 10 μmol/ml
  biofilm growth: OD 630 nm at 24 hrs divided by OD of control (control = 1): 2.7352
S. sanguinis; 20 μmol/ml
  biofilm growth: OD 630 nm at 24 hrs divided by OD of control (control = 1): 1.6356
S. sanguinis; 25 μmol/ml
  biofilm growth: OD 630 nm at 24 hrs divided by OD of control (control = 1): 1.9363
A. actinomycetemcomitans; 5 μmol/ml
  biofilm growth: OD 630 nm at 24 hrs divided by OD of control (control = 1): 0.9734
A. actinomycetemcomitans; 10 μmol/ml
  biofilm growth: OD 630 nm at 24 hrs divided by OD of control (control = 1): 0.9794
A. actinomycetemcomitans; 20 μmol/ml
  biofilm growth: OD 630 nm at 24 hrs divided by OD of control (control = 1): 1.0297
A. actinomycetemcomitans; 25 μmol/ml
  biofilm growth: OD 630 nm at 24 hrs divided by OD of control (control = 1): 0.9417
T. forsythia; 5 μmol/ml
  biofilm growth: OD 630 nm at 24 hrs divided by OD of control (control = 1): 0.8918
T. forsythia; 10 μmol/ml
  biofilm growth: OD 630 nm at 24 hrs divided by OD of control (control = 1): 0.9297
T. forsythia; 20 μmol/ml
  biofilm growth: OD 630 nm at 24 hrs divided by OD of control (control = 1): 0.7855
T. forsythia; 25 μmol/ml
  biofilm growth: OD 630 nm at 24 hrs divided by OD of control (control = 1): 0.8404
S. mutans; 5 μmol/ml
  biofilm growth: OD 630 nm at 24 hrs divided by OD of control (control = 1): 1.0356
S. mutans; 10 μmol/ml
  biofilm growth: OD 630 nm at 24 hrs divided by OD of control (control = 1): 1.1168
S. mutans; 20 μmol/ml
  biofilm growth: OD 630 nm at 24 hrs divided by OD of control (control = 1): 1.1403
S. mutans; 25 μmol/ml
  biofilm growth: OD 630 nm at 24 hrs divided by OD of control (control = 1): 1.1529
